The subject of the experiment is KE-37. Nature of the experiment: Anticancer activity against human KE-37 cells assessed as reduction in cell viability. It counts as functional, cell-based.

The term IC50 denotes the point on the concentration scale where inhibition reaches its midpoint. Consider `C=CCc1cccc(/C=N/NC(=O)CN2CCN(Cc3ccccc3)CC2)c1O` [PAC-1], for which the IC50 is 242 nM.

Source of the values: ChEMBL document CHEMBL5241066, “Research progress of MEK1/2 inhibitors and degraders in the treatment of cancer” (Eur J Med Chem, 2021).
